Results reported in patent US20120064044A1, “METHODS OF TREATING EDEMA RELATED TO ISCHEMIA-REPERFUSION” (priority 2009, published 2012).

Tests used:
[1] = test system: NF-κB activation mediated through stimulation by Toll-like receptor 2 (TLR2) ligands; assay: NF-κB reporter assay (fluc/β-gal) in HMVECs stimulated with TLR2 ligands; assay type: cell-based, human; settings: transfected HMVECs pretreated 1 hour; Pam(3)Cys 25 μg/mL or LTA 1 μg/mL for 8 hours; FIG. 8
Description: FIG. 8 is a bar graph showing the effects of CRX-526 on NF-κB activation mediated through stimulation by Toll-like receptor 2 (TLR2) ligands. Human pulmonary microvascular endothelial cells (HMVECs) were transfected with recombinant first-generation E1, E3-deleted Ad.NF-κB-luciferase and consituitive β-galactosidase vectors so that when NF-κB is activated, the ratio of firefly luciferase (fluc)/β-galactosidase (β-gal) increases. Forty eight hours after transfection, the HMVECs were pretreated for 1 hour with various concentrations of CRX-526 (as shown on the x-axis) and exposed to TLR2 ligands Pam(3)Cys (25 μg/mL, darkly shaded bars) or lipoteichoic acid (LTA; 1 μg/mL, open bars) for 8 hours. Luciferase activity is normalized to β-galactosidase to control for infection efficiency.
(§1) Recombinant, first generation E1, E3-deleted adenovirus serotype 5 vectors were prepared (see Sanlioglu et al., J. Biol. Chem., 276, 30188-30198 (2001)) and HMVECs and AMs were transfected as previously described for epithelial cells. See Wu et al., Respir. Res., 6, 26 (2005).

OuJ mice = assay: Murine lung ischemia-reperfusion injury, edema by wet to dry weight ratio (W/D), OuJ mice; assay type: in vivo, mouse; parameters: dose or concentration left out as unconfirmed; settings: intravenously over 30 minutes (200 μL of saline) starting 60 minutes before left hilar clamping, FIG. 5A
Description: (§2) Mice were anesthetized with ketamine (0.1 mg/gm body weight) and xylazine (0.01 mg/gm) interperitoneally, followed by one-third of the initial dose hourly. Tracheotomy allowed mechanical ventilation (with a tidal volume of 0.4 mL, respiratory rate 120/min, I/E 0.4, PEEP 3 cm H2O, FiO2, 1.0) using a Columbus Instruments Ventilator CIV-101 (Columbus Instruments, Columbus, Ohio, United States of America). The right jugular vein was cannulated for infusion of albumin 2.5% in 0.9% saline, 450 μL/hour by syringe pump (Medfusion 2010i; Medex, Carlsbad, California, United States of America) to maintain hydration. Rectal temperature was monitored and maintained with a heating pad. The left pulmonary hilum was occluded for 1 hour with a microvascular clamp through a left thoracotomy. Reperfusion began with removal of the clamp. Animals were sacrificed at intervals ranging from 15 minutes to 3 hours by cardiectomy, and both lungs were excised. The apical portion of each lung was excised and immediately weighed, then desiccated in a 60° C. oven for 48 hours and re-weighed to determine wet to dry weight ratio (W/D). Remaining lung tissue was flash frozen in liquid nitrogen and stored at −80° C. Lungs excised immediately after sacrifice served as controls.

NF-κB activation [2] = assay: NF-κB reporter assay (fluc/β-gal) in HMVECs stimulated with LPS or TNF; assay type: cell-based, human; settings: FIG. 5B
Description: FIG. 5B is a bar graph showing the in vitro inhibition of NF-κB activation (based on firefly luciferase (fluc)/β-galactosidase (β-gal) activity) effected by 0.1, 1, 10, and 100 μg concentrations (i.e., Inhib 0.1, Inhib 1, Inhib 10, Inhib 100, respectively) of CRX-526. Fluc/β-gal was measured following stimulation of CRX-526-treated human pulmonary microvascular endothelial cells (HMVECs) with phosphate buffered saline (PBS) only (open bars), 10 ng/mL lipopolysaccharide (LPS) (spotted bars), 5 ng/mL LPS (striped bars), or 0.25 ng/mL tumor necrosis factor (TNF, darkly shaded bars). HMVECs that had not been treated with CRX-526 were used as a control. n=4/group, *p<0.05 compared to other values at same time point by ANOVA.
as §1

C57BL/6J mice = assay: Murine lung ischemia-reperfusion injury, edema by wet to dry weight ratio (W/D), C57BL/6J mice; assay type: in vivo, mouse; settings: BL6 mice; 10 μg over 30 minutes starting 60 min prior to left hilar clamping for 1 hour; FIGS. 7A and 7B
Description: as §2
A further study was performed to compare the effects of pre-treatment with a TLR4 inhibitor. […]

NF-κB activation [3] = assay: NF-κB reporter assay (fluc/β-gal) in alveolar macrophages; assay type: cell-based, mouse; settings: 1 μg/mL LPS; native OuJ AMs and AMs from chimeric strain P-M+; FIG. 4A
Description: FIG. 4A is a bar graph of NF-κB activation (as measured by firefly luciferase (fluc)/β-galactosidase (β-gal) activity) in alveolar macrophages (AMs) from chimeric mice twelve weeks following bone marrow transplant. The AMs were retrieved by bronchoalveolar lavage (BAL) and infected with Ad.NFκBLuc and Ad.CMV-LacZ, then incubated with either phosphate buffered saline (PBS; open bars) or 1 μg/mL lipopolysaccharide (LPS, darkly shaded bars). The observed firefly luciferase/β-galactosidase activity indicated complete replacement of recipient marrow from either chimeric HeJ strain (P+M−) or chimeric OuJ strain (P−M+). P=parenchymal cells, M=marrow-derived cells, +=intact TLR4 (OuJ), −=non-functional TLR4 (HeJ). AMs retrieved from non-irradiated HeJ and OuJ mice served as controls. n=4 experiments/group, p<0.0001.
AMs from HeJ and OuJ mice were harvested by BAL 120 days after BMT. The trachea was cannulated with a tailored 18 gauge catheter (Becton Dickinson, Sandy, Utah, United States of America). BAL was performed by slow tracheal delivery of 4 aliquots (35 μL×body weight in grams) of pre-warmed, sterile, endotoxin-, calcium-, and magnesium-free PBS with 0.2 mM EGTA. Lavage fluid was withdrawn by gentle suction, pooled for each mouse, and centrifuged at 250 g for 5 minutes. […]

Molecule: CCCCCCCCCCC[C@H](CC(=O)N[C@H]1[C@H](OC[C@H](NC(=O)C[C@@H](CCCCCCCCCCC)OC(=O)CCCCC)C(=O)O)O[C@H](CO)[C@@H](OP(=O)(O)O)[C@@H]1OC(=O)C[C@@H](CCCCCCCCCCC)OC(=O)CCCCC)OC(=O)CCCCC [CRX-526]
- NF-κB activation stimulated by TLR2 ligands [1]: reduced NF-κB activation
- edema (W/D) following 1 hour of ischemia-reperfusion (OuJ mice): prevented edema
- TNF stimulation of NF-κB activation (NF-κB activation [2]; HMVECs, 0.25 ng/mL TNF): no impact
- NF-κB activation in HMVECs exposed to LPS (NF-κB activation [2]; LPS 10 or 5 ng/mL, CRX-526 0.1, 1, 10, 100 μg): prevented NF-κB activation
- edema (W/D) for up to 180 min of reperfusion (C57BL/6J mice): little if any edema

Molecule: lipopolysaccharide [LPS]
- increase in luciferase activity (NF-κB activation [3]): approximately 60 fold
